What was measured:
[1] = Growth inhibition of NCI60 cells after 48 hrs; type: functional; conditions: Homo sapiens, NCI60, 48 h
[2] = tested on: SNB-75; assay: Growth inhibition of SNB75 cells; type: functional; conditions: Homo sapiens
[3] = tested on: Hs-578T; assay: Growth inhibition of HS578T cells; type: functional; conditions: Homo sapiens
[4] = tested on: RPMI; assay: Inhibition of DNA synthesis in human RPMI cells by [3H]-thymidine incorporation assay; type: functional, cell-based
[5] = tested on: U-251; assay: Growth inhibition of U251 cells; type: functional; conditions: Homo sapiens

SMILES | GI50 [1] | GI50 [2] | GI50 [3] | IC50 [4] | GI50 [5]
COc1cc(/C=C/c2cc3c(c(OC)c2)O[C@]2(C)CC[C@@H](O)C(C)(C)[C@H]2C3)cc(O)c1CC=C(C)C | 870 nM | – | – | – | –
COc1cc(/C=C/c2cc3c(c(OC)c2)O[C@@]2(C)CC[C@H](O)C(C)(C)[C@@H]2C3)cc(O)c1CC=C(C)C | 4600 nM | – | – | – | –
COc1cc(/C=C/c2cc(O)c(CC=C(C)C)c(O)c2)cc2c1O[C@@]1(C)CC[C@H](O)C(C)(C)[C@@H]1C2 (single isomer, unassigned) | 130 nM | 1700 nM | < 10 nM | 3400 nM | < 10 nM
COc1cc(/C=C/c2cc(O)c(C/C=C(\C)CCC=C(C)C)c(O)c2)cc2c1O[C@@]1(C)CC[C@H](O)C(C)(C)[C@@H]1C2 (single isomer, unassigned) | 2200 nM | – | – | 4500 nM | –
COc1cc(/C=C/c2cc(O)c(C/C=C(\C)CCC=C(C)C)c(O)c2)cc2c1O[C@]1(C)CC[C@@H](O)C(C)(C)[C@H]1C2 (single isomer, unassigned) [3-DEOXYSCHWEINFURTHIN B] | 870 nM | – | – | 210 nM | –
COc1cc(/C=C/c2cc(O)c(CC=C(C)C)c(O)c2)cc2c1O[C@]1(C)CC[C@@H](O)C(C)(C)[C@H]1C2 (single isomer, unassigned) [SCHWEINFURTHIN F] | 410 nM | 10 nM | < 10 nM | 580 nM | 13000 nM
CC(C)=CCC/C(C)=C/Cc1c(O)cc(/C=C/c2cc(O)c3c(c2)C[C@@H]2C(C)(C)[C@H](O)[C@H](O)C[C@@]2(C)O3)cc1O [SCHWEINFURTHIN A] | 360 nM | – | – | – | –
COc1cc(/C=C/c2cc(O)c(C/C=C(\C)CCC=C(C)C)c(O)c2)cc2c1O[C@]1(C)C[C@@H](O)[C@@H](O)C(C)(C)[C@H]1C2 [SCHWEINFURTHIN B] | 810 nM | – | – | – | –
CC(C)=CCc1c(O)cc(/C=C/c2cc(O)c3c(c2)C[C@@H]2C(C)(C)[C@H](O)[C@H](O)C[C@@]2(C)O3)cc1O [VEDELIANIN] | 80 nM | – | – | – | –

Reference: ChEMBL document CHEMBL1146372, “Total synthesis of (R,R,R)- and (S,S,S)-schweinfurthin F: differences of bioactivity in the enantiomeric series” (Bioorg Med Chem Lett, 2007)
